Measured values published in ChEMBL document CHEMBL5126520, “Recent research results have converted gp120 binders to a therapeutic option for the treatment of HIV-1 infection. A medicinal chemistry point of view” (Eur J Med Chem, 2022).
Each block holds one molecule with its values, some of them ahead of it. Starred links: 1 amine or outer side, 2 acyl side, 3 side chain; linkers in the order of their positions; H or OH if unused. Positions of bridges follow the written chain, without caps; N, C: chain ends. Non-standard residues stand in square brackets, D forms with d. Residues, ends and D or L forms follow the SMILES beside them. X1 = O=C([C@@H]1CC(n2cc(-c3ccc(-c4cccs4)cc3)nn2)CN1[*:1])[*:2]

How the values were obtained:
[1] = test system: Human immunodeficiency virus 1; assay: Antiviral activity against HIV-1 IIIB(X4) infected in human MT2 cells assessed as reduction in p24 antigen level preincubated for 30 mins followed by infection with cells and measured after 3 to 4 days by ELISA; type: functional, organism-based; settings: Human immunodeficiency virus 1, IIIB(X4)
[2] = test system: Human immunodeficiency virus 1; assay: Antiviral activity against HIV-1 Bal(R5) infected in human CEMx174 5.25M7 cells assessed as reduction in p24 antigen level preincubated for 30 mins followed by infection with cells and measured after 3 to 4 days by ELISA; type: functional, organism-based; settings: Human immunodeficiency virus 1, Bal(R5)
[3] = test system: Human immunodeficiency virus 1; assay: Antiviral activity against HIV-1 IIIB infected in human MT2 cells assessed as reduction in p24 antigen level incubated for 1 hr by ELISA; type: functional, organism-based; settings: Human immunodeficiency virus 1, IIIB, MT2, 1 h
[4] = Cytotoxicity against human MT2 cells assessed as reduction in cell viability incubated for 4 days by XTT assay; type: toxicity, cell-based; settings: time 4 day
[5] = Selectivity index, ratio of CC50 for cytotoxicity against human MT2 cells to EC50 for antiviral activity against HIV-1 IIIB infected in human MT2 cells; type: toxicity, cell-based; settings: read-out: Ratio CC50/EC50
[6] = test system: Human immunodeficiency virus 1; assay: Antiviral activity against HIV-1 pseudotyped virus expressing HXB-2 Env proteins infected in human TZM-bl cells assessed as inhibition of viral entry preincubated for 30 mins followed by infection with cells and measured after 3 days by luciferase based analysis; type: functional, organism-based; settings: Human immunodeficiency virus 1, TZM-bl
[7] = Selectivity index, ratio of CC50 for Cytotoxicity against human TZM-bl cells to EC50 for antiviral activity against HIV-1 pseudotyped virus expressing HXB-2 Env proteins infected in human TZM-bl cells; type: toxicity, cell-based; settings: read-out: Ratio CC50/EC50
[8] = test system: Human immunodeficiency virus 1; assay: Antiviral activity against laboratory-adapted HIV-1 NL4-3 infected in human TZM-bl cells incubated for 2 days by luciferase based analysis; type: functional, organism-based; settings: Human immunodeficiency virus 1, NL4-3, TZM-bl, 48 h
[9] = test system: Human immunodeficiency virus 1; assay: Antiviral activity against HIV-1 CH58TF infected in human TZM-bl cells assessed as neutralization viral infection pretreated for 1 hr followed by infection with cells and measured after 48 hrs by luciferase assay; type: functional, organism-based; settings: Human immunodeficiency virus 1, CH58TF
[10] = test system: Human immunodeficiency virus 1; assay: Antiviral activity against HIV-1 JR-FL; type: functional, organism-based; settings: Human immunodeficiency virus 1, JR-FL
[11] = test system: Human immunodeficiency virus 1; assay: Antiviral activity against HIV-1 YU-2 assessed as inhibition of viral entry; type: functional, organism-based; settings: Human immunodeficiency virus 1, YU-2
[12] = Cytotoxicity against human TZM-bl cells assessed as reduction in cell viability incubated for 3 days by MTS assay; type: toxicity, cell-based; settings: time 3 day
[13] = test system: Human immunodeficiency virus 1; assay: Antiviral activity against HIV-1 IIIB infected in human MT2 cells assessed as inhibition of p24 production preincubated for 30 mins followed by infection with cells and measured after 4 days by ELISA; type: functional, organism-based; settings: Human immunodeficiency virus 1, IIIB
[14] = Cytotoxicity against human MT2 cells assessed as reduction in cell viability incubated for 4 days by MTS assay; type: toxicity, cell-based; settings: time 4 day
[15] = test system: Human immunodeficiency virus 1; assay: Antiviral activity against HIV-1 IIIB(X4) infected in human CEMx174 5.25M7 cells assessed as inactivation of HIV-1 free virions by measuring p24 antigen level preincubated for 1 hr followed by infection with cells and measured after 3 to 4 days by ELISA; type: functional, organism-based; settings: Human immunodeficiency virus 1, IIIB(X4)
[16] = test system: Human immunodeficiency virus 1; assay: Antiviral activity against HIV-1 Bal(R5) infected in human CEMx174 5.25M7 cells assessed as inactivation of HIV-1 free virions by measuring p24 antigen level preincubated for 1 hr followed by infection with cells and measured after 3 to 4 days by ELISA; type: functional, organism-based; settings: Human immunodeficiency virus 1, Bal(R5)
[17] = Cytotoxicity against human MT2 cells assessed as reduction in cell viability incubated for 48 hrs by CCK-8 assay; type: toxicity, cell-based
[18] = Cytotoxicity against human CEMx174 5.25M7 cells assessed as reduction in cell viability incubated for 48 hrs by CCK-8 assay; type: toxicity, cell-based
[19] = biological target: Envelope glycoprotein gp160 (Human immunodeficiency virus 1, UniProt Q6QLK5); assay: Inhibition of HIV1 gp120 interaction with CD4 pretreated for 1 hr followed by TMB substrate addition and measured after 10 mins by ELISA
Envelope glycoprotein gp160, sequence (Q6QLK5 whole entry): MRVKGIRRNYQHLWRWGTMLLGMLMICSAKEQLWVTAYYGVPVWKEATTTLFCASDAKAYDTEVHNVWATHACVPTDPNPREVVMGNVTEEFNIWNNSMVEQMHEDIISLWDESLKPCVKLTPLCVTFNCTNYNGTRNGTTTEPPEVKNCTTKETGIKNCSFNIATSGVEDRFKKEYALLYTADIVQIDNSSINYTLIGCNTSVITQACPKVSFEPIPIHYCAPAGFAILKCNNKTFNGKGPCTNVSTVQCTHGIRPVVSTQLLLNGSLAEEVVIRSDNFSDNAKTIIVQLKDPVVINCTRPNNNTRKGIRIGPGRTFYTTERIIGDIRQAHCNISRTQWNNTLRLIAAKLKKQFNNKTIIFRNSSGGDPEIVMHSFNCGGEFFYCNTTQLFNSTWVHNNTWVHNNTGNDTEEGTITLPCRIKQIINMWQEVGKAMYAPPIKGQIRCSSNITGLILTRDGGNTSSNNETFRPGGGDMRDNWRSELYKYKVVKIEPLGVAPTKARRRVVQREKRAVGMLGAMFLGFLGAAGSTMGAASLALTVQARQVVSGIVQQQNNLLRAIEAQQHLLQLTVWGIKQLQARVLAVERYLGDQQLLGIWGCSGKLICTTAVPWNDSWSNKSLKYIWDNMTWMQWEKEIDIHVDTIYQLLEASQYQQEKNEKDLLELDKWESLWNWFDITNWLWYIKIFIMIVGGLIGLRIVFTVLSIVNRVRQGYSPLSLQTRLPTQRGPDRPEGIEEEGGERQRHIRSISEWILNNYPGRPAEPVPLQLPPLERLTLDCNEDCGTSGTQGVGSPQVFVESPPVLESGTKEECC

[20] = test system: Human immunodeficiency virus 1; assay: Antiviral activity against HIV-1 Bal.01 infected in HOS.T4.R5 cells preincubated for 45 mins followed by infection with cells and measured 24 hrs post infection by luminescence based analysis; type: functional, organism-based; settings: Human immunodeficiency virus 1, Bal.01, HOS.T4.R5
[21] = Cytotoxicity against HOS.T4.R5 cells assessed as reduction in cell viability incubated for 24 hrs by WST-1 assay; type: toxicity, cell-based; settings: human

Structure (SMILES): COc1ccnc2[nH]cc(C(=O)C(=O)N3CCN(C(=O)c4ccccc4)C[C@H]3C)c12
EC50 [8]: 2200 nM

Structure (SMILES): COc1cnc(-c2csc(CN(C)CCCN(C)C)n2)c2[nH]cc(C(=O)C(=O)N3CCC([C@@H](C#N)c4ccccc4)CC3)c12
EC50 [8]: 20 nM

Structure (SMILES): O=C(O)c1cc(-c2ccc(/C=C3\SC(=S)N(CCc4ccc(O)cc4)C3=O)o2)ccc1Cl
IC50 [1]: 830 nM
IC50 [2]: 830 nM

Structure (SMILES): Cc1nc(C(CN)NC(=O)c2ccc(-c3ccc4c(c3)OCO4)[nH]2)sc1CO (stereo unspecified)
selectivity ratio [5]: 51
EC50 [6]: 2300 nM
selectivity ratio [7]: 63
CC50 at 72 h [12]: 146000 nM
EC50 [13]: 3800 nM
CC50 at 96 h [14]: 193000 nM

Structure (SMILES): CC1(C)CC(NC(=O)C(=O)Nc2ccc(Cl)c(F)c2)CC(C)(C)N1C(=O)COc1ccc(CCN2C(=O)/C(=C/c3ccc(-c4ccc(Cl)c(C(=O)O)c4)o3)SC2=S)cc1
IC50 [15]: 710 nM
IC50 [16]: 660 nM
CC50 at 48 h [17]: 29000 nM
CC50 at 48 h [18]: 18000 nM

Structure (SMILES): COc1ccnc2[nH]cc(C(=O)C(=O)N3CCN(C(=O)c4ccccc4)CC3)c12
IC50 [19]: 1.5 nM

Structure (SMILES): CC[C@H](C)[C@@H]1NC(=O)[C@H](CC(N)=O)NC(=O)[C@@H](N)CC(=O)NCCCC[C@@H](C(N)=O)NC(=O)[C@H](Cc2c[nH]c3ccccc23)NC(=O)[C@@H]2CC(n3cc(-c4ccc(-c5cccs5)cc4)nn3)CN2C1=O (stereo partly specified) (H-DNI[X1]WK-NH2; lactam 1-6)
EC50 [20]: 105 nM
CC50 at 24 h [21]: 100000 nM

The next lines start with results.

IC50 [1]: 830 nM
IC50 [2]: 830 nM
Structure (SMILES): CC1(C)CC(NC(=O)C(=O)Nc2ccc(Cl)c(F)c2)CC(C)(C)N1

EC50 [3]: 6500 nM
EC50 [6]: 6900 nM
Structure (SMILES): CC1(C)CC(NC(=O)C(=O)Nc2ccc(Cl)cc2)CC(C)(C)N1
CC50 at 96 h [4]: > 280000 nM
selectivity ratio [5]: > 43
selectivity ratio [7]: 8.7

EC50 [9]: 7000 nM
Structure (SMILES): NCCNC(=O)N1CCC[C@H](C(=O)Nc2ccc(Cl)c(F)c2)C1

EC50 [10]: 18000 nM
Structure (SMILES): CCOC(=O)N1CCC[C@H](C(=O)Nc2ccc(Cl)c(F)c2)C1

EC50 [11]: 1600 nM
Structure (SMILES): CNCc1ccc2c(c1)[C@H](NC(=O)C(=O)Nc1ccc(Cl)c(F)c1)[C@@H](CNC(=N)N)C2

EC50 [11]: 1300 nM
EC50 [9]: 110 nM
Structure (SMILES): CN(Cc1ccc2c(c1)[C@H](NC(=O)C(=O)Nc1ccc(Cl)c(F)c1)[C@@H](CNC(=N)N)C2)C(=N)N

EC50 [10]: 22000 nM
Structure (SMILES): CNCc1ccc2c(c1)[C@@H](CC[C@@H](O)CO)[C@H](CNC(=N)N)[C@H]2NC(=O)C(=O)Nc1ccc(Cl)c(F)c1

EC50 [10]: 8300 nM
Structure (SMILES): CCOC(=O)N1CCCC(C(=O)Nc2ccc(Cl)c(F)c2)C1 (racemic)
